In US20250176599A1, “FLAVOR COMPOSITION AND FOOD AND BEVERAGE” (TAKASAGO INTERNATIONAL CORPORATION, priority 2021, published 2025):

Legend:
[1] = Sensory evaluation of aqueous solution III containing 1-octen-3-one 1 ppb: off-flavor intensity and masking component intensity; conditions: 1-octen-3-one 1 ppb, average score 0-4
Method: (§1) In ion-exchanged water, each degradation component was added to achieve the concentrations listed in Table 1, and aqueous solutions I to VI containing these degradation components were prepared.
(§2) For the aforementioned aqueous solutions containing degradation components, nootkatone was added at the concentrations listed in Table 2 to confirm the intensity of the off-flavor (masking effect) in each sample and the intensity of the masking component itself (the impact on the flavor of the food and/or beverage itself).
(§3) The test was conducted as follows. Eight experienced panelists were selected to conduct a sensory evaluation. The intensity of the off-flavor of the aqueous solution containing the degradation components derived from unsaturated fatty acids, without added masking components, was set as “Evaluation: 4.” The ion-exchanged water free of any degradation components was set as “Evaluation: 0.” The intensity of the off-flavor (masking effect) of each sample was then relatively evaluated according to the following evaluation criteria.
(§4) • Off-flavor is strongly sensed: 4 points • Off-flavor is sensed: 3 points • Off-flavor is slightly sensed: 2 points • Off-flavor is barely sensed: 1 point • Off-flavor is not sensed at all: 0 points
(§5) Also, the intensity of the masking components (impact on the flavor of the food and/or beverage itself) was absolutely evaluated according to the following evaluation criteria.
(§6) • Masking component is strongly sensed: 4 points • Masking component is sensed: 3 points • Masking component is slightly sensed: 2 points • Masking component is barely sensed: 1 point • Masking component is not sensed at all: 0 points

[2] = Overall conclusion of the sensory evaluation across aqueous solutions I to VI
Method: as §1, §2, §3, §4, §5, §6

[3] = Sensory evaluation of aqueous solution IV containing 1,5-octadien-3-one 100 ppt: off-flavor intensity and masking component intensity; conditions: aqueous solution IV, 1,5-octadien-3-one 100 ppt, average score 0-4
Method: as §1, §2, §3, §4, §5, §6

[4] = Sensory evaluation of aqueous solution VI containing 1,5-octadien-3-ol 10 ppb: off-flavor intensity and masking component intensity; conditions: aqueous solution VI, 1,5-octadien-3-ol 10 ppb, average score 0-4
Method: as §1, §2, §3, §4, §5, §6

[5] = Sensory evaluation of aqueous solution V containing 1-octen-3-ol 10 ppb: off-flavor intensity and masking component intensity; conditions: 1-octen-3-ol 10 ppb, average score 0-4
Method: as §1, §2, §3, §4, §5, §6

[6] = Sensory evaluation of aqueous solution II containing (E)-2-octenal 10 ppb: off-flavor intensity and masking component intensity; conditions: (E)-2-octenal 10 ppb, average score 0-4
Method: as §1, §2, §3, §4, §5, §6

[7] = Sensory evaluation of aqueous solution I containing (E)-2-nonenal 1 ppb: off-flavor intensity and masking component intensity; conditions: (E)-2-nonenal 1 ppb, average score 0-4
Method: as §1, §2, §3, §4, §5, §6

For `CCCC(=O)C(C)=O` [2,3-Hexanedione, 2,3-hexanedione], the “Off-Flavor Intensity” value ([1]; 1 ppb added) was 4.0 points, the “Off-Flavor Intensity” value ([1]; 1 ppm added) was 2.3 points and the “Off-Flavor Intensity” value ([1]; 5 ppb added) was 3.9 points. The “Off-Flavor Intensity” value ([1]; 5 ppm added) was 1.8 points, the “Off-Flavor Intensity” value ([1]; 10 ppb added) was 3.6 points and the “Off-Flavor Intensity” value ([1]; 10 ppm added) was 1.5 points. The “Off-Flavor Intensity” value ([1]; 50 ppb added) was 3.4 points, the “Off-Flavor Intensity” value ([1]; 100 ppb added) was 3.0 points and the “Off-Flavor Intensity” value ([1]; 500 ppb added) was 2.5 points. The “concentration that masks the off-flavor and does not affect the flavor of the food and/or beverage itself, lower limit” value [2] was ≥ 1 ppb, the “concentration that masks the off-flavor and does not affect the flavor of the food and/or beverage itself, upper limit” value [2] was ≤ 1 ppm and the “Off-Flavor Intensity” value ([3]; 1 ppb added) was 3.6 points. For the same compound, the “Off-Flavor Intensity” value ([3]; 1 ppm added) was 2.1 points, the “Off-Flavor Intensity” value ([3]; 5 ppb added) was 3.5 points and the “Off-Flavor Intensity” value ([3]; 5 ppm added) was 1.5 points. For the same compound, the “Off-Flavor Intensity” value ([3]; 10 ppb added) was 3.4 points, the “Off-Flavor Intensity” value ([3]; 10 ppm added) was 0.8 points and the “Off-Flavor Intensity” value ([3]; 50 ppb added) was 2.9 points. For the same compound, the “Off-Flavor Intensity” value ([3]; 100 ppb added) was 2.9 points, the “Off-Flavor Intensity” value ([3]; 500 ppb added) was 2.6 points and the “Off-Flavor Intensity” value ([4]; 1 ppb added) was 3.4 points. The “Off-Flavor Intensity” value ([4]; 1 ppm added) was 1.6 points, the “Off-Flavor Intensity” value ([4]; 5 ppb added) was 3.4 points and the “Off-Flavor Intensity” value ([4]; 5 ppm added) was 1.0 points. For the same compound, the “Off-Flavor Intensity” value ([4]; 10 ppb added) was 3.0 points, the “Off-Flavor Intensity” value ([4]; 10 ppm added) was 0.5 points and the “Off-Flavor Intensity” value ([4]; 50 ppb added) was 2.8 points. For the same compound, the “Off-Flavor Intensity” value ([4]; 100 ppb added) was 2.6 points, the “Off-Flavor Intensity” value ([4]; 500 ppb added) was 2.1 points and the “Off-Flavor Intensity” value ([5]; 1 ppb added) was 3.1 points. For the same compound, the “Off-Flavor Intensity” value ([5]; 1 ppm added) was 1.5 points, the “Off-Flavor Intensity” value ([5]; 5 ppb added) was 2.9 points and the “Off-Flavor Intensity” value ([5]; 5 ppm added) was 0.9 points. The “Off-Flavor Intensity” value ([5]; 10 ppb added) was 2.5 points, the “Off-Flavor Intensity” value ([5]; 10 ppm added) was 0.4 points and the “Off-Flavor Intensity” value ([5]; 50 ppb added) was 2.3 points. The “Off-Flavor Intensity” value ([5]; 100 ppb added) was 2.0 points, the “Off-Flavor Intensity” value ([5]; 500 ppb added) was 1.8 points and the “Off-Flavor Intensity” value ([6]; 1 ppb added) was 3.0 points. The “Off-Flavor Intensity” value ([6]; 1 ppm added) was 2.0 points, the “Off-Flavor Intensity” value ([6]; 5 ppb added) was 3.0 points and the “Off-Flavor Intensity” value ([6]; 5 ppm added) was 1.4 points. The “Off-Flavor Intensity” value ([6]; 10 ppb added) was 2.6 points, the “Off-Flavor Intensity” value ([6]; 10 ppm added) was 1.0 points and the “Off-Flavor Intensity” value ([6]; 50 ppb added) was 2.5 points. For the same compound, the “Off-Flavor Intensity” value ([6]; 100 ppb added) was 2.0 points, the “Off-Flavor Intensity” value ([6]; 500 ppb added) was 2.0 points and the “Off-Flavor Intensity” value ([7]; 1 ppb added) was 3.4 points. The “Off-Flavor Intensity” value ([7]; 1 ppm added) was 1.6 points, the “Off-Flavor Intensity” value ([7]; 5 ppb added) was 3.4 points and the “Off-Flavor Intensity” value ([7]; 5 ppm added) was 1.1 points. The “Off-Flavor Intensity” value ([7]; 10 ppb added) was 3.3 points, the “Off-Flavor Intensity” value ([7]; 10 ppm added) was 0.9 points and the “Off-Flavor Intensity” value ([7]; 50 ppb added) was 2.6 points. For the same compound, the “Off-Flavor Intensity” value ([7]; 100 ppb added) was 2.4 points and the “Off-Flavor Intensity” value ([7]; 500 ppb added) was 2.0 points.
